# Results: patent US10752626B2, “Iso-citrate dehydrogenase (IDH) inhibitor” (SHANGHAI METON PHARMACEUTICAL CO., LTD, priority 2016, dated 2020)
# Test: in vitro
# Details: microsomes; for % remaining #1 / % remaining #2 / Ln (% remaining) #1 / Ln (% remaining) #2 / Mean Ln(% remaining): 1 μM, pH 7.4; for microsomal CLint at 1 μM: pH 7.4, CLint; for half-life at 1 μM: pH 7.4, T1/2
# Procedure: The liver microsomes of mouse, rat, dog, monkey and human were purchased from Corning Inc., and were stored at −60° C. prior to use. The acetonitrile and NADPH were purchased from Honeywell International Inc. (New Jersey, U.S.) and Roche Inc. (Basel, Swiss).
# Reactions were initiated by adding NADPH to a final concentration of 1 mM. The final volume of each reaction mixture was 0.2 ml, and all reactions were performed in duplicate. At each set time point (0, 5, 15, 30 and 60 min), a small aliquot (e.g., 20 μl) was transferred from the reaction system into ice-cold internal standard (IS) containing acetonitrile to quench the reaction and to precipitate the protein. After vortex and centrifuge at 3700 rpm for 10 min, the supernatant was injected into LC-MS/MS for analysis.
# In vitro microsomal clearance was estimated based on determination of elimination half-life (T1/2) of compounds disappearance from their initial concentrations. Peak area ratios of each compound (test or control) to IS was calculated. Ln (% Control) versus Incubation Time (min) curve was plotted, and the slope of a linear fitting line was calculated. Drug elimination rate constant k (min^−1), T1/2 (min), and in vitro intrinsic clearance CLint (mL·min^−1·mg^−1 proteins) was calculated according to the following equations: k=−slope T1/2=0.693/k CLint=k/Cprotein where Cprotein (mg·mL^−1) is the microsomal protein concentration in the incubation system. Test 3: Metabolic Stability Assay in Mouse Plasma
# In this study, the metabolic stability of the compounds was assessed in mouse, rat, dog, monkey and human liver microsome according to the method disclosed in Test 2 of the Biological evaluation section.
structure (smiles),measurement,setting,value
"CCN1Cc2c(ccnc2N[C@@H](C)c2ccc(Oc3ccc(C)cc3)cc2)C1=O [Compound 16, (S)-2-ethyl-4-(1-(4-(p-tolyloxy)phenyl)ethylamino)-2,3-dihydro-1H-pyrrolo [3,4-c]pyridin-1-one]",% remaining #1,"dog, 0 h",100%
same,% remaining #2,"dog, 0 h",100%
same,Ln (% remaining) #1,"dog, 0 h",4.61
same,Ln (% remaining) #2,"dog, 0 h",4.61
same,Mean Ln(% remaining),"dog, 0 h",4.61
same,% remaining #1,"dog, 5 min",105%
same,% remaining #2,"dog, 5 min",106%
same,Ln (% remaining) #1,"dog, 5 min",4.65
same,Ln (% remaining) #2,"dog, 5 min",4.66
same,Mean Ln(% remaining),"dog, 5 min",4.66
same,% remaining #1,"dog, 0.25 h",94.6%
same,% remaining #2,"dog, 0.25 h",85.4%
same,Ln (% remaining) #1,"dog, 0.25 h",4.55
same,Ln (% remaining) #2,"dog, 0.25 h",4.45
same,Mean Ln(% remaining),"dog, 0.25 h",4.50
same,% remaining #1,"dog, 0.5 h",76.5%
same,% remaining #2,"dog, 0.5 h",76.0%
same,Ln (% remaining) #1,"dog, 0.5 h",4.34
same,Ln (% remaining) #2,"dog, 0.5 h",4.33
same,Mean Ln(% remaining),"dog, 0.5 h",4.33
same,% remaining #1,"dog, 1 h",52.8%
same,% remaining #2,"dog, 1 h",48.8%
same,Ln (% remaining) #1,"dog, 1 h",3.97
same,Ln (% remaining) #2,"dog, 1 h",3.89
same,Mean Ln(% remaining),"dog, 1 h",3.93
same,microsomal CLint at 1 μM,dog,23 µL/min/mg
same,half-life at 1 μM,dog,60.3 min
same,stability in human liver microsome,human,medium stability
same,% remaining #1,"human, 0 h",100%
same,% remaining #2,"human, 0 h",100%
same,Ln (% remaining) #1,"human, 0 h",4.61
same,Ln (% remaining) #2,"human, 0 h",4.61
same,Mean Ln(% remaining),"human, 0 h",4.61
same,% remaining #1,"human, 5 min",87.1%
same,% remaining #2,"human, 5 min",90.5%
same,Ln (% remaining) #1,"human, 5 min",4.47
same,Ln (% remaining) #2,"human, 5 min",4.51
same,Mean Ln(% remaining),"human, 5 min",4.49
same,% remaining #1,"human, 0.25 h",65.7%
same,% remaining #2,"human, 0.25 h",69.0%
same,Ln (% remaining) #1,"human, 0.25 h",4.18
same,Ln (% remaining) #2,"human, 0.25 h",4.23
same,Mean Ln(% remaining),"human, 0.25 h",4.21
same,% remaining #1,"human, 0.5 h",51.7%
same,% remaining #2,"human, 0.5 h",50.5%
same,Ln (% remaining) #1,"human, 0.5 h",3.95
same,Ln (% remaining) #2,"human, 0.5 h",3.92
same,Mean Ln(% remaining),"human, 0.5 h",3.93
same,% remaining #1,"human, 1 h",26.2%
same,% remaining #2,"human, 1 h",25.4%
same,Ln (% remaining) #1,"human, 1 h",3.27
same,Ln (% remaining) #2,"human, 1 h",3.23
same,Mean Ln(% remaining),"human, 1 h",3.25
same,microsomal CLint at 1 μM,human,43.6 µL/min/mg
same,half-life at 1 μM,human,31.8 min
same,% remaining #1,"monkey, 0 h",100%
same,% remaining #2,"monkey, 0 h",100%
same,Ln (% remaining) #1,"monkey, 0 h",4.61
same,Ln (% remaining) #2,"monkey, 0 h",4.61
same,Mean Ln(% remaining),"monkey, 0 h",4.61
same,% remaining #1,"monkey, 5 min",66.1%
same,% remaining #2,"monkey, 5 min",72.7%
same,Ln (% remaining) #1,"monkey, 5 min",4.19
same,Ln (% remaining) #2,"monkey, 5 min",4.29
same,Mean Ln(% remaining),"monkey, 5 min",4.24
same,% remaining #1,"monkey, 0.25 h",32.5%
same,% remaining #2,"monkey, 0.25 h",35.4%
same,Ln (% remaining) #1,"monkey, 0.25 h",3.48
same,Ln (% remaining) #2,"monkey, 0.25 h",3.57
same,Mean Ln(% remaining),"monkey, 0.25 h",3.52
same,% remaining #1,"monkey, 0.5 h",12.5%
same,% remaining #2,"monkey, 0.5 h",12.2%
same,Ln (% remaining) #1,"monkey, 0.5 h",2.53
same,Ln (% remaining) #2,"monkey, 0.5 h",2.51
same,Mean Ln(% remaining),"monkey, 0.5 h",2.52
same,% remaining #1,"monkey, 1 h",2.13%
same,% remaining #2,"monkey, 1 h",2.06%
same,Ln (% remaining) #1,"monkey, 1 h",0.757
same,Ln (% remaining) #2,"monkey, 1 h",0.725
same,Mean Ln(% remaining),"monkey, 1 h",0.741
same,microsomal CLint at 1 μM,monkey,127 µL/min/mg
same,half-life at 1 μM,monkey,10.9 min
same,% remaining #1,"mouse, 0 h",100%
same,% remaining #2,"mouse, 0 h",100%
same,Ln (% remaining) #1,"mouse, 0 h",4.61
same,Ln (% remaining) #2,"mouse, 0 h",4.61
same,Mean Ln(% remaining),"mouse, 0 h",4.61
same,% remaining #1,"mouse, 5 min",88.1%
same,% remaining #2,"mouse, 5 min",94.2%
same,Ln (% remaining) #1,"mouse, 5 min",4.48
same,Ln (% remaining) #2,"mouse, 5 min",4.55
same,Mean Ln(% remaining),"mouse, 5 min",4.51
same,% remaining #1,"mouse, 0.25 h",72.7%
same,% remaining #2,"mouse, 0.25 h",80.8%
same,Ln (% remaining) #1,"mouse, 0.25 h",4.29
same,Ln (% remaining) #2,"mouse, 0.25 h",4.39
same,Mean Ln(% remaining),"mouse, 0.25 h",4.34
same,% remaining #1,"mouse, 0.5 h",31.0%
same,% remaining #2,"mouse, 0.5 h",43.8%
same,Ln (% remaining) #1,"mouse, 0.5 h",3.43
same,Ln (% remaining) #2,"mouse, 0.5 h",3.78
same,Mean Ln(% remaining),"mouse, 0.5 h",3.61
same,% remaining #1,"mouse, 1 h",10.6%
same,% remaining #2,"mouse, 1 h",12.0%
same,Ln (% remaining) #1,"mouse, 1 h",2.36
same,Ln (% remaining) #2,"mouse, 1 h",2.48
same,Mean Ln(% remaining),"mouse, 1 h",2.42
same,microsomal CLint at 1 μM,mouse,77.4 µL/min/mg
same,half-life at 1 μM,mouse,17.9 min
same,% remaining #1,"rat, 0 h",100%
same,% remaining #2,"rat, 0 h",100%
same,Ln (% remaining) #1,"rat, 0 h",4.61
same,Ln (% remaining) #2,"rat, 0 h",4.61
same,Mean Ln(% remaining),"rat, 0 h",4.61
same,% remaining #1,"rat, 5 min",90.0%
same,% remaining #2,"rat, 5 min",111%
same,Ln (% remaining) #1,"rat, 5 min",4.50
same,Ln (% remaining) #2,"rat, 5 min",4.71
same,Mean Ln(% remaining),"rat, 5 min",4.61
same,% remaining #1,"rat, 0.25 h",59.4%
same,% remaining #2,"rat, 0.25 h",92.3%
same,Ln (% remaining) #1,"rat, 0.25 h",4.09
same,Ln (% remaining) #2,"rat, 0.25 h",4.53
same,Mean Ln(% remaining),"rat, 0.25 h",4.31
same,% remaining #1,"rat, 0.5 h",35.8%
same,% remaining #2,"rat, 0.5 h",62.9%
same,Ln (% remaining) #1,"rat, 0.5 h",3.58
same,Ln (% remaining) #2,"rat, 0.5 h",4.14
same,Mean Ln(% remaining),"rat, 0.5 h",3.86
same,% remaining #1,"rat, 1 h",14.0%
same,% remaining #2,"rat, 1 h",24.1%
same,Ln (% remaining) #1,"rat, 1 h",2.64
same,Ln (% remaining) #2,"rat, 1 h",3.18
same,Mean Ln(% remaining),"rat, 1 h",2.91
same,microsomal CLint at 1 μM,rat,66.5 µL/min/mg
same,half-life at 1 μM,rat,20.8 min
